US20040147578A1, “Use of lipoaminoacids as absorption promoters in a pharmaceutical composition” (priority 2001, published 2004)

Experiment: In vitro permeation study in Franz cell
Format: in vitro ADME
Settings: receiver pH 7.4
Source text: These studies have been carried out using the most commonly used model in in vitro permeation studies. It is the Franz cell which is made up of two compartments separated by a membrane:
a donor compartment in which the composition to be studied is placed,
a membrane preimpregnated with a lipidic solution, made up of a mixture of phospholipids,
a receiver compartment containing an aqueous solution buffered at pH 7.4 under constant agitation, in which the active principle is recovered at regular intervals. Depending on the case, the composition of the medium can vary with the physico-chemical characteristics of the molecule.
These permeation studies were carried out by comparing each dispersed system comprising the lipoamino acid(s) with a simple solution of active principle.
The permeation expresses an active principle quantity which diffuses through a membrane per unit of surface and time (μg/cm^2/h).

SMILES	Permeation (time 0 hours, aciclovir, topical-route system of Example 6 vs simple solution of active principle) [μg/cm^2/h]	Permeation (time 1 hour, aciclovir, topical-route system of Example 6 vs simple solution of active principle) [μg/cm^2/h]	Permeation (time 2 hours, aciclovir, topical-route system of Example 6 vs simple solution of active principle) [μg/cm^2/h]	Permeation (time 3 hours, aciclovir, topical-route system of Example 6 vs simple solution of active principle) [μg/cm^2/h]	Permeation (time 0 hours, progesterone, oral-route system of Example 3 vs simple solution of active principle) [μg/cm^2/h]	Permeation (time 0 hours, progesterone, transdermic-route system of Example 4 vs simple solution of active principle) [μg/cm^2/h]	Permeation (time 1 hour, progesterone, oral-route system of Example 3 vs simple solution of active principle) [μg/cm^2/h]	Permeation (time 1 hour, progesterone, transdermic-route system of Example 4 vs simple solution of active principle) [μg/cm^2/h]	Permeation (time 2 hours, progesterone, oral-route system of Example 3 vs simple solution of active principle) [μg/cm^2/h]	Permeation (time 2 hours, progesterone, transdermic-route system of Example 4 vs simple solution of active principle) [μg/cm^2/h]	Permeation (time 3 hours, progesterone, oral-route system of Example 3 vs simple solution of active principle) [μg/cm^2/h]	Permeation (time 3 hours, progesterone, transdermic-route system of Example 4 vs simple solution of active principle) [μg/cm^2/h]
Nc1nc2c(ncn2COCCO)c(=O)[nH]1 [Aciclovir]	0	2.35	4.65	5.80								
CC(=O)[C@H]1CC[C@H]2[C@@H]3CCC4=CC(=O)CC[C@]4(C)[C@H]3CC[C@]12C [Progesterone]					0	0	0.2	0.25	0.4	0.43	0.8	0.85
